In US9144598B2, “Reverse thermal gels and their use in cell therapy” (University of Pittsburgh—Of the Commonwealth System of …, priority 2010, dated 2015):
One block for each substance: values may come before it. No end group written: not given here.

Legend:
[1] = test system: Sprague Dawley rats; settings: rat, in vivo, sc
Experimental: In vivo biocompatibility was evaluated in Sprague Dawley rats.

[2] = buffer
Experimental: The storage modus (G′) of the polymer solutions in phosphate buffered saline (PBS) solution was measured by rheometer from 20° C. to 55° C.

[3] = test system: SH-SY5Y; experiment: 2D neuronal cell culture: cell attachment and neurite outgrowth; format: cell-based; settings: for neurite outgrowth without RA / neurite outgrowth with RA: 14-day culture; for neurite outgrowth with RA: 10 μM retinoic acid from day 7; for cell attachment on surface: 15% (wt) gel or laminin coated plate
Experimental: Cells, SH-SY5Y (ATCC, CRL-2266), were cultured in DMEM/F12 (1:1) medium with 10% fetal bovine serum (FBS), and 1% antibiotics. The cells were incubated in a humidified atmosphere with 5% CO2 at 37° C. The medium was refreshed every three days until the cells reached 95% confluence. The cells were harvested from the petri dish by incubation in 1 ml of trypsin solution (0.25%) for 5 min, neutralizing with 5 ml of serum-supplemented medium, centrifugation and removal of supernatant. The cell pellets were resuspended in serum-supplemented medium and 5×10^3 cells was used immediately for 2D neuronal cell culture.
Fifty μl of each solution (15%, wt) of pure reverse thermal gel and IKVAVS-GEL was transferred into 96-well plate on 37° C. heating plate. After 5 min, cell suspension (5×10^3 cells) in 150 μl of medium was added on top of the gel. For a control, the same number of cell suspension in 200 μl of medium was transferred into laminin coated 96-well plate. A 100 μl of medium was refreshed every two days. The cell growth was examined on a microscope. After 7-day culture, 10 μM of retinoic acid (RA) was added and neurite outgrowth was monitored on a microscope.

temperature range in which it remained gel [2]: 37-40 °C
Substance: poly(ethylene glycol)-poly(serinol hexamethylene urethane) [ESHU]
inflammatory response [1]: well tolerated inflammatory response

Substance: laminin [reference compound]
neurite outgrowth without RA [3]: some short neurite outgrowth
neurite outgrowth with RA [3]: much dense and longer neurite outgrowth
cell attachment on surface [3]: attached very well

Substance: IKVAVS-GEL: IKVAVS (SEQ ID NO: 21) conjugated reverse thermal gel (also: conjugated to reverse thermal gel; listed as Homo sapiens)
neurite outgrowth without RA [3]: much better than that on pure reverse thermal gel
neurite outgrowth with RA [3]: much better than that on pure reverse thermal gel
cell attachment on surface [3]: attached well
